Counter-ions that a name gives are not always drawn.
Legend:
Type in all cases: cell-based
[1] = target: T1, IRAK4 (Homo sapiens, UniProt Q9NWZ3); test: Target protein degradation effect in K562 IRAK4-HiBiT cells (Nano-Glo HiBiT luminescence); details: incubated 16 to 18 hours
T1 construct: expressed in transfected cells; host or cells: K562 IRAK4-HiBiT cells
T1 sequence (Q9NWZ3 1-460): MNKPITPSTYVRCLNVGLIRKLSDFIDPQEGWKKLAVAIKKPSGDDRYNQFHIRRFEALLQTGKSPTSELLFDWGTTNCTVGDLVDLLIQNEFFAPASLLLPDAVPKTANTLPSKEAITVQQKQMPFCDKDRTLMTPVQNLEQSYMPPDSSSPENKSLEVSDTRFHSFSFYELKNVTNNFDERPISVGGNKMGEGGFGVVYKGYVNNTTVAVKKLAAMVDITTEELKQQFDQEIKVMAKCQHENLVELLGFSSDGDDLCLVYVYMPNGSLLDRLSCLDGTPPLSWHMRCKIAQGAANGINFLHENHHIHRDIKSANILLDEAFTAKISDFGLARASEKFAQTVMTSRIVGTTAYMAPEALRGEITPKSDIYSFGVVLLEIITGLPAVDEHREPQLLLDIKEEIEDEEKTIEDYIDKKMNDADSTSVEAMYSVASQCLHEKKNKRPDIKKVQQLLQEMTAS
Description: Objective: In this experiment, the degradation effect of the test compound on the target protein IRAK4 in K562 IRAK4-HiBiT cells was detected.
Cells: K562 IRAK4-HiBiT cells [formula]
Positive control: 1000 nM; negative control: 0.1% DMSO Table 1. Reagents and consumables
• 1. […] Cell seeding • (1) The cell culture medium was discarded, and the cells were washed once with DPBS, digested with trypsin, and counted to prepare a cell suspension of […]. • (2) 25 µL/well of cell suspension was added to the assay plate containing the test compound using Multidrop Combi at medium speed. • (3) The assay plate containing cells was returned to an incubator with 5% CO2 at 37°C and incubated for 16 to 18 hours.
• (1) 25 µL/well of assay reagent (NanoGlo lysis buffer + substrate + LgBit protein) was added to the assay plate using Multidrop Combi at high speed, and the plate was shaken for 10 minutes. • (2) The plate was centrifuged at 2000 rpm for 1 minute to remove air bubbles. • (3) The plate was read on Envision using US Luminescence detection method.
The degradation rate (DR) of the test compound was calculated using the following formula: DR (%) = (RLU vehicle control - RLU compound) / (RLU vehicle control - RLU positive control) * 100%, where the vehicle control served as the blank control. […]

[2] = target: T2, IKZF1 (Homo sapiens, UniProt Q13422+Q96SW2); test: In cell western analysis of IKZF1 protein expression level in MM.1S cells; details: IKZF 1, MM.1S cells, 24 hours
T2 construct: expression levels of IKZF1 and IKZF3 proteins in MM.1S cells; host or cells: MM.1S cells
T2 sequence (Q13422 whole entry): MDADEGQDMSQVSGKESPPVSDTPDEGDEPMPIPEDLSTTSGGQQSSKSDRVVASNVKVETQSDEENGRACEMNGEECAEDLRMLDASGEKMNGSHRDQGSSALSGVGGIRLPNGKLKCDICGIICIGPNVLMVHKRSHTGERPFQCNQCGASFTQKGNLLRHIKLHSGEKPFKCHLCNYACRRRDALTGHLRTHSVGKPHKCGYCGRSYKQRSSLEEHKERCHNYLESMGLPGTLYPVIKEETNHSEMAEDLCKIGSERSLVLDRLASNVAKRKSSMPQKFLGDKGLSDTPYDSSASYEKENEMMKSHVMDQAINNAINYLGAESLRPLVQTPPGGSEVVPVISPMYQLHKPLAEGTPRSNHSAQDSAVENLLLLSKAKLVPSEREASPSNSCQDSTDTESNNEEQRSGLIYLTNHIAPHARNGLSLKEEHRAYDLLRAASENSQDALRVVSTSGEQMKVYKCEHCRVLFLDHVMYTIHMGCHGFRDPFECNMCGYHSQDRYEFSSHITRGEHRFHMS
T2 sequence (Q96SW2 whole entry): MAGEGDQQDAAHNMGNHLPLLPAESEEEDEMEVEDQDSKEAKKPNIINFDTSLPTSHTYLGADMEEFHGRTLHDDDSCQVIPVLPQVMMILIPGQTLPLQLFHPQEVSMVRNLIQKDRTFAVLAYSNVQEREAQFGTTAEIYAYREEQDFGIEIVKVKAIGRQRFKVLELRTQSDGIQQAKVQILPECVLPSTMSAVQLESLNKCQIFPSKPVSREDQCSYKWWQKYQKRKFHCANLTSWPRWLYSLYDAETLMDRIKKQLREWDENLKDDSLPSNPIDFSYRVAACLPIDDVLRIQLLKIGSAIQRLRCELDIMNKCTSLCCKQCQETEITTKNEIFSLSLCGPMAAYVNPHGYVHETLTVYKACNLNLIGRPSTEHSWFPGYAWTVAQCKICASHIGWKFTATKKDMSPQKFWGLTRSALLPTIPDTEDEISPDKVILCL
T2 sequence (Q16531 whole entry partner): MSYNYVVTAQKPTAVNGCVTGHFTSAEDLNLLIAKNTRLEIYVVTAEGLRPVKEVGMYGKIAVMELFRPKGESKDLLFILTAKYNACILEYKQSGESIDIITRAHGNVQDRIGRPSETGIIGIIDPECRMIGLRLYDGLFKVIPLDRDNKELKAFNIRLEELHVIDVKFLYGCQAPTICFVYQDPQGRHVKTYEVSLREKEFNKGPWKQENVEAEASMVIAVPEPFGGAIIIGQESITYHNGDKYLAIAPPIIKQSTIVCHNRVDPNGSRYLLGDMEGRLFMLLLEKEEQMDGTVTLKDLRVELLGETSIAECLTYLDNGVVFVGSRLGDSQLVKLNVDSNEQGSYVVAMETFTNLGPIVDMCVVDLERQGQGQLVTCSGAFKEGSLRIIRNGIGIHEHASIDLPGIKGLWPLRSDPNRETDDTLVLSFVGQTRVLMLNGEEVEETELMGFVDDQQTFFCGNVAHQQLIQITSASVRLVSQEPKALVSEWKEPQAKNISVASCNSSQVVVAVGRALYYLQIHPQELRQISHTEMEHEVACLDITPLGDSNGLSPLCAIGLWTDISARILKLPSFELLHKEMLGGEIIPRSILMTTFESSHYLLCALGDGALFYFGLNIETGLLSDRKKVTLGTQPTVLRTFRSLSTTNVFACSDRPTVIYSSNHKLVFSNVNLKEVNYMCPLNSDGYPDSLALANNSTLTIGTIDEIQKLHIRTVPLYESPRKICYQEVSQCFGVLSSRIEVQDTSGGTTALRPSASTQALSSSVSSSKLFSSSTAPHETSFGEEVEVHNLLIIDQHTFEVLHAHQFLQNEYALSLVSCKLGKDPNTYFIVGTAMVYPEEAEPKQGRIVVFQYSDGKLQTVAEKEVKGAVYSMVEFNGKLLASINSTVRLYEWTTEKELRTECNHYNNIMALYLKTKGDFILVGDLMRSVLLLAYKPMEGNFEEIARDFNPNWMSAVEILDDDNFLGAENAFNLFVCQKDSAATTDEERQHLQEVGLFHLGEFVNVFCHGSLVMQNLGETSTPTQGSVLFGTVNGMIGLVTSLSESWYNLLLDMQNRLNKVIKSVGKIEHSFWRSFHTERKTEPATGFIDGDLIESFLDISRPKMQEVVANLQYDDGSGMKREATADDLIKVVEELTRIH
Description: (§1) Objective: The experiment was conducted to evaluate the degradation effects of test compounds on IKZF1 and IKZF3 proteins in MM.1S cells by detecting their impact on the expression levels of IKZF1 and IKZF3 proteins in MM.1S cells.
(§2) Cell line: MM.1S cell (obtained from ATCC; Cat. No. CRL-2974)
(§3) Negative control: 0.1% DMSO Table 4. Reagents and consumables
(§4) Experimental scheme: • 1) MM.1S cells in the logarithmic growth phase were seeded into a 96-well plate at 1.2 × 10^5 cells per well and cultured overnight. • 2) On the second day, drug treatment was initiated with a starting concentration of 300 nM, followed by a 3-fold dilution in triplicate wells, with 10 concentration gradients (containing DMSO), and incubated for 24 hours in a culture incubator. • 3) The mixture was centrifuged, and the cell supernatant was carefully removed. […]
(§5) GraphPad Prism 6 software was utilized to fit the curve with the inhibition rate data, and the DC50 value was calculated.

[3] = target: T3, IKZF3 (Homo sapiens, UniProt Q96SW2+Q9UKT9); test: In cell western analysis of IKZF3 protein expression level in MM.1S cells; details: IKZF3, MM.1S cells, 24 hours
T3 construct: expression levels of IKZF1 and IKZF3 proteins in MM.1S cells; host or cells: MM.1S cells
T3 sequence (Q9UKT9 whole entry): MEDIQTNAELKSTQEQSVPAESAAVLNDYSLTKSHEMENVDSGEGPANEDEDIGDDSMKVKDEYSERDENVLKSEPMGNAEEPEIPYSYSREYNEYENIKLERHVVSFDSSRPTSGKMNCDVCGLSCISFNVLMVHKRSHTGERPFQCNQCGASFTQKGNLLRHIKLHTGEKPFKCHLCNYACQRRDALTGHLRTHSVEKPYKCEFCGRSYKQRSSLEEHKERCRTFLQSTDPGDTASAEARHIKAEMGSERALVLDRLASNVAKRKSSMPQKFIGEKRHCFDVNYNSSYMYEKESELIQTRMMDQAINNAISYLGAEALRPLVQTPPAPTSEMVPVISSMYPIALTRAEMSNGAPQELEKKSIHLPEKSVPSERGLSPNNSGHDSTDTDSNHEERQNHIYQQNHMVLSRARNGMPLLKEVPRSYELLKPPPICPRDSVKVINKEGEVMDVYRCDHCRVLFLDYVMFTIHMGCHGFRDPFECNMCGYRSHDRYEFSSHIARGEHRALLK
T3 sequence (Q96SW2 whole entry): as the sequence (Q96SW2 whole entry) above
T3 sequence (Q16531 whole entry partner): as the sequence (Q16531 whole entry partner) above
Description: as §1, §2, §3, §4, §5

## O=C1CCC(c2noc3ccc4c(NC(=O)CN5CCN(C[C@H]6CC[C@H](n7cc(NC(=O)c8coc(-c9ccnc(NCC%10CC%10)c9)n8)c(C(F)F)n7)CC6)CC5)cccc4c23)C(=O)N1 (stereo partly drawn) [Hydrochloride of Compound of Formula (I)]
[1]
  DC50: 4.87 nM
[2]
  DC50: 23.4 nM
[3]
  DC50: 20.6 nM

— EP4692081A1, “PREPARATION METHOD FOR NAPHTHOISOXAZOLE COMPOUND” (priority 2023, dated 2024)
